Earlier results, collected in patent US8067405B2, “Superoxide dismutase mimics for the treatment of ocular disorders and diseases” (Novartis AG, priority 2002, dated 2011).

Test system: diabetogenic T-cell clone
Conditions: in a cloned cell

CCN1C=CC=C/C1=C1/C2=NC(=C(c3cccc[n+]3CC)C3=NC(=C(c4cccc[n+]4CC)c4ccc([n-]4)C(c4cccc[n+]4CC)=C4C=CC1=N4)C=C3)C=C2.[Cl-].[Cl-].[Cl-].[Cl-].[Cl-].[Mn+3] [AEOL10113]
onset of diabetes: delay the onset of diabetes
